Blank lines part the entries; values can stand above or below the molecule they belong to.
Assays:
Aurora kinase B = Aurora kinase B (Homo sapiens, UniProt Q96GD4); experiment: Inhibition of human aurora B
Aurora kinase C = target: T1, Aurora kinase C (Homo sapiens, UniProt Q9UQB9); experiment: Inhibition of human aurora C
T1 sequence (Q9UQB9 whole entry): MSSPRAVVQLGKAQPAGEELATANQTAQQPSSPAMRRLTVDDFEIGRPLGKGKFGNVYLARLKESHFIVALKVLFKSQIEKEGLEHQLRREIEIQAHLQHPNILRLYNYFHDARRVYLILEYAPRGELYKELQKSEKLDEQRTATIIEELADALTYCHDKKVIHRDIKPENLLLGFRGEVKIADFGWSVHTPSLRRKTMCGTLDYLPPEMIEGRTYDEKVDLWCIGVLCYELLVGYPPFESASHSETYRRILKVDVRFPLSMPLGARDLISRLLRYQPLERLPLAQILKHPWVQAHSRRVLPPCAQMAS

[1] = target: T2, Receptor-type tyrosine-protein kinase FLT3 (Homo sapiens, UniProt P36888); experiment: Inhibition of human FLT3
T2 sequence (P36888 whole entry): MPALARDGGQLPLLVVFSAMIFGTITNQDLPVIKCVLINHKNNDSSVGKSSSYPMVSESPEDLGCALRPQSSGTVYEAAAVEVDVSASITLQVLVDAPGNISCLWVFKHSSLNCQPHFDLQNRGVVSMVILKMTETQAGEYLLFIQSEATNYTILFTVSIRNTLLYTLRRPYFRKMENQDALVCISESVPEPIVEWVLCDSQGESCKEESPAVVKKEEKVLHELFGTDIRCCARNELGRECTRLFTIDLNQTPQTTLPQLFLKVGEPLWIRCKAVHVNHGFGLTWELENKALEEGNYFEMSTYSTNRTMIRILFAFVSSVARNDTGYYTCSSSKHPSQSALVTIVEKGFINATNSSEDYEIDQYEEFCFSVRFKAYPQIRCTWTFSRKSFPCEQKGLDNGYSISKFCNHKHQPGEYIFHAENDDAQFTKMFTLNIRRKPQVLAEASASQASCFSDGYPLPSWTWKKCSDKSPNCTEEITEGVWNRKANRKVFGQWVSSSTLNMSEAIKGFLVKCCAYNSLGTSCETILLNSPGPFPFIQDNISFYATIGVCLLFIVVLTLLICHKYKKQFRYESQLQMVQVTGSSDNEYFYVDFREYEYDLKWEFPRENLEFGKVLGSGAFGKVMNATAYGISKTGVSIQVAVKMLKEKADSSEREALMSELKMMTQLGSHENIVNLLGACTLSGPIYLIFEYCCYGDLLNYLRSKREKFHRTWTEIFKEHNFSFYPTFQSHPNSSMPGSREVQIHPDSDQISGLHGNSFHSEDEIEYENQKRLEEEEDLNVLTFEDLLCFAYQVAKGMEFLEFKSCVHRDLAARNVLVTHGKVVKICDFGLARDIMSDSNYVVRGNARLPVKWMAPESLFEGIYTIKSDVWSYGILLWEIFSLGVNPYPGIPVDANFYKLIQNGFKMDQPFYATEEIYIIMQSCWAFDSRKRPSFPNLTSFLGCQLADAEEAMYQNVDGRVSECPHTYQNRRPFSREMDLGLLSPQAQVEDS

[2] = Half life in human patient with advanced solid tumors at 0.5 to 12 mg/m2/hr, iv administered by continuous intravenous infusion over 5 days every 4 weeks; format: ADME, organism-based; settings: in vivo, dose 0.5-12 mg/m2/hr, time 5 day
[3] = Cmax in plasma of human patient with advanced solid tumors at 0.5 to 12 mg/m2/hr, iv administered by continuous intravenous infusion over 5 days every 4 weeks; format: ADME, organism-based; settings: dose 0.5-12 mg/m2/hr, time 5 day

Chain of Aurora kinase B (Q96GD4 whole entry): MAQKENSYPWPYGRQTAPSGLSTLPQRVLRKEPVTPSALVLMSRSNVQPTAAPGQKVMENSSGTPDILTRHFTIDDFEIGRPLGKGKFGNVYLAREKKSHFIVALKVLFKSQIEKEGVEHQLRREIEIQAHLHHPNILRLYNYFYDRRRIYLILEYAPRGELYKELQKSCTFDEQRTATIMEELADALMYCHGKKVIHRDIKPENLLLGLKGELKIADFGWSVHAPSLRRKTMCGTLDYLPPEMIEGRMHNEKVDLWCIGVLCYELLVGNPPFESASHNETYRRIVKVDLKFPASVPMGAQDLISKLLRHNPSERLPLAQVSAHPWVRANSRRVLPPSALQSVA

- IC50 (Aurora kinase B): < 3 nM
SMILES: O=C(Nc1c[nH]nc1-c1nc2cc(CN3CCOCC3)ccc2[nH]1)NC1CC1 [AT-9283]

- Ki (Aurora kinase C): 17 nM
SMILES: CCN(CCCOc1ccc2c(Nc3cc(CC(=O)Nc4cccc(F)c4)n[nH]3)ncnc2c1)CCOP(=O)(O)O [BARASERTIB]

- IC50 (Aurora kinase B): 35 nM
- IC50 [1]: 390 nM
SMILES: CCc1cccc(CC)c1NC(=O)N1Cc2n[nH]c(NC(=O)c3ccc(N4CCN(C)CC4)cc3)c2C1 [PHA-680632]

- half-life [2]: 15 h
- Cmax [3]: 650 nM
SMILES: Cc1cc(Nc2cc(N3CCN(C)CC3)nc(Sc3ccc(NC(=O)C4CC4)cc3)n2)[nH]n1 [TOZASERTIB]

Source: ChEMBL document CHEMBL5715939, “Aurora kinase inhibitors: a new class of targeted drugs in cancer” (Clin Lung Cancer, 2006)
